Measurements reported in patent US9481876B2, “Cathepsin L inhibitors and probes comprising vinyl sulfonate moiety and methods of using same” (Research Foundation of the City University of New York, priority 2014, dated 2016).
“Also recorded” adds a separate entry of the source.

How the values were obtained:
[1] = molecular target: T1, recombinant human cathepsin L (Homo sapiens, UniProt P07711); test: initial inhibitory screen of precursors against recombinant human cathepsin L; type: biochemical; conditions: 10 μM
T1 sequence (P07711 18-333 limits assumed): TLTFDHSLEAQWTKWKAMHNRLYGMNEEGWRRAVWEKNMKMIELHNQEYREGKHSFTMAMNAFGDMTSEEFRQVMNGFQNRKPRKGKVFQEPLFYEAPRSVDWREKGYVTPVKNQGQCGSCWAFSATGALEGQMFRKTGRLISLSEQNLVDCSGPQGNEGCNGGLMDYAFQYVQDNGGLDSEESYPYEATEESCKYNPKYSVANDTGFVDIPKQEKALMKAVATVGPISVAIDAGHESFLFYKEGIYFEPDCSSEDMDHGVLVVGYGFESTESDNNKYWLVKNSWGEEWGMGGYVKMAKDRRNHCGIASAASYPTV
Method: An initial inhibitory screen of various precursors (see FIG. 3A and FIG. 3B) was performed at 10 μM against recombinant human cathepsin L. The percent inhibition of each precursor is shown below its corresponding precursor in FIG. 3A and FIG. 3B. Precursor 301 was identified as a lead precursor with a 95±3% inhibition. In some embodiments, one or more of the 2, 3, 5 and/or 6 positions are occupied by an aryl group. Examples of suitable aryl groups include NHPh, OPh or homologs thereof.

Cathepsin K = molecular target: T2, Cathepsin K (Homo sapiens, UniProt P43235); test: selectivity panel inactivation kinetics, Cathepsin K; type: biochemical; conditions: kinact (Cathepsin L)/kinact (Cathepsin K); fold
T2 sequence (P43235 115-329): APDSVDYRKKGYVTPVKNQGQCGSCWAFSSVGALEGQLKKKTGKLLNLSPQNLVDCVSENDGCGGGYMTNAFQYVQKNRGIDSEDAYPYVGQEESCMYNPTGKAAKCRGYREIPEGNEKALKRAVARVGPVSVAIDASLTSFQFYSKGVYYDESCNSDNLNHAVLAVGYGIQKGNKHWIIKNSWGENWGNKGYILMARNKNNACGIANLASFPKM
Excerpt: (§1) This panel of enzymes included cysteine cathepsins, an aspartyl cathepsin, a serine cathepsin, a cysteine containing enzyme PTP, and a serine protease. The second order inactivation rate constants were thus determined by performing inactivation kinetics under a pseudo-first order condition (Table 1). […] Furthermore, no reactivity was observed against other panel of enzymes (e.g. aspartyl cathepsin D, serine cathepsin G, and a low pKa cysteine containing enzyme hPTP1B, and serine protease trypsin). A remarkable selectivity profile observed for compound 100 in these experiments is noteworthy, and thus is thought to lend itself well for the development of cathepsin L probes.
(§2) Table 1 depicts second order enzyme inactivation rate constants (kinact) of compound 100 against a panel of closely-related enzymes. Relative Selectivity Factor (RSF)=kinact (Cathepsin L)/kinact (other enzyme); NI*=no inhibition at 0.1 mM of compound 100 in 1 h, NA**=Not Applicable.

[2] = molecular target: T3, active recombinant human cathepsin L (Homo sapiens, UniProt P07711); test: inhibition and inactivation kinetics of cathepsin L, hydrolysis of fluorescent substrate Z-Phe-Arg-(7-Amino-4-methylcoumarin); type: biochemical
T3 construct: active recombinant human cathepsin L
Excerpt: Based on this initial inhibitory screen compound 100 (FIG. 1), was proposed and successfully synthesized from precursor 301 using a multi-step synthetic methodology (FIG. 4A and FIG. 4B). […] FIG. 5 depicts a progress curve for cathepsin L-catalyzed hydrolysis of fluorescent substrate, Z-Phe-Arg-(7-Amino-4-methylcoumarin) with various concentration of compound 100. […] The dose-dependent progress curves were utilized to obtain the second order cathepsin L inactivation rate constant (kinact). […] The mode of inhibition was irreversible because no significant recovery of enzyme activity could be achieved, even after a very large dilution of inactivated reaction mixture.
as §1, §2

[3] = test system: MDA-MB-231 breast cancer cells; test: wound healing assay, cell migration; type: cell-based; conditions: MDA-MB-231 cells, 750 nM, 0, 7 and 22 hrs
Method: MDA-MB-231 cells were grown in an eight-well glass dish overnight before treating with DMSO (control, 0.05%, FIGS. 6A, 6B and 6C), and compound 100 (750 nM, FIGS. 6D, 6E and 6F). After creating the wounds, images were taken at three different time intervals: t=0 hr (FIG. 6A and FIG. 6D), 7 hrs (FIG. 6B and FIG. 6E), and 22 hrs (FIG. 6C and FIG. 6F). Representative images of three independent experiments are shown. The dotted lines indicate the edge of the wound at time zero, and the arrows indicate the area of wound closure.
FIG. 7 depicts wound closure, a direct measure of cell migratory potential, as calculated using the following equation: % Wound Closure=[(At=0h−At=22h)/At=0h]×100%, where At=0h is the area of the wound measured immediately after the scratch, and At=22h is the area of the wound after 22 hrs. The figure represents a statistical analysis by three independent experiments using the unpaired Student's t test. The data were evaluated as the mean±1 standard deviation. The image analysis were performed by ImageJ software.

Cathepsin G = molecular target: T4, Cathepsin G (Homo sapiens, UniProt P08311); test: selectivity panel inactivation kinetics, Cathepsin G; type: biochemical; conditions: serine cathepsin G
T4 sequence (P08311 21-244): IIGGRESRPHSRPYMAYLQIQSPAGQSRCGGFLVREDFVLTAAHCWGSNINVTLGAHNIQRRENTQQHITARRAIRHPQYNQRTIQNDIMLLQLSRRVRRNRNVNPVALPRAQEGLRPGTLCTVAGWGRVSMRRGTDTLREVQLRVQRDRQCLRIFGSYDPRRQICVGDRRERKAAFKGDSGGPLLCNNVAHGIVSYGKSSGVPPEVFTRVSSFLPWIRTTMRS
Excerpt: as §1, §2

Trypsin = test: selectivity panel inactivation kinetics, Trypsin; type: biochemical; conditions: serine protease trypsin
Excerpt: as §1, §2

Cathepsin B = Cathepsin B (Homo sapiens, UniProt P07858); test: selectivity panel inactivation kinetics, Cathepsin B; type: biochemical; conditions: kinact (Cathepsin L)/kinact (Cathepsin B); fold
Excerpt: as §1, §2

hPTP1B = molecular target: T5, hPTP1B (Homo sapiens, UniProt P18031); test: selectivity panel inactivation kinetics, hPTP1B; type: biochemical
T5 sequence (P18031 1-435): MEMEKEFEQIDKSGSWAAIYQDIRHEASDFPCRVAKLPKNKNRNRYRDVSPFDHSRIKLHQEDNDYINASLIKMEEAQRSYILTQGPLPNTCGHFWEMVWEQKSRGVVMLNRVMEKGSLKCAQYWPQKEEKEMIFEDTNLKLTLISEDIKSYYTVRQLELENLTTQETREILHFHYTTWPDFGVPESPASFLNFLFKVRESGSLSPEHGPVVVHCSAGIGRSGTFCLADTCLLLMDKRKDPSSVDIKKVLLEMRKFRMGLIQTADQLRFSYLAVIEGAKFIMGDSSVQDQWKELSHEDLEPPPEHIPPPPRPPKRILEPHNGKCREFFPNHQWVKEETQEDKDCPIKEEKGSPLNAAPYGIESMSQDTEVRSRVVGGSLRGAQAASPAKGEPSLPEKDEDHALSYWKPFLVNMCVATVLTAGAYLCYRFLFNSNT
Excerpt: as §1, §2

[4] = test system: intracellular cathepsin L activity in MDA-MB-231 cells; test: intracellular cathepsin L activity in MDA-MB-231 cells with cell-permeable fluorescent substrate; type: cell-based
Excerpt: Cell-specific and tissue-specific microenvironments are highly dynamic, and can have a dramatic impact on enzymatic activities and their in vivo function. A direct quantitative reporter of cathepsin L activity in living cancer cells is more desirable for dissecting its role in promoting metastatic cancer. Thus an activity-dependent small molecule probe with desirable cell permeability is urgently needed. […] This cell line is known to overexpress cathepsin L, thereby promoting invasion. A commercial cell-permeable fluorescent substrate of cathepsin L (Enzo LifeSciences, Inc.) was utilized to assess the intracellular inhibitory efficacy of compound 100.
Specifically, the effect of cathepsin L inhibitor 100 on intracellular cathepsin L activity in metastatic breast cancer MDA-MB-231 cell line was examined by fluorescence. Control cells and cells exposed to compound 100 were incubated with (a) vehicle (DMSO 0.05%). The non-control cells were also incubated with compound 100 (750 nM) overnight (22 h). […] Bright-field, fluorescence and merged images were obtained. […] The results are representative of three independent experiments. The effectiveness of cathepsin L inhibitor 100 was also evaluated using a functional wound-healing assay (FIG. 6A to 6F).

Cathepsin D = Cathepsin D (Homo sapiens, UniProt P07339); test: selectivity panel inactivation kinetics, Cathepsin D; type: biochemical; conditions: aspartyl cathepsin D
Chain of Cathepsin D (P07339 65-412, species assumed): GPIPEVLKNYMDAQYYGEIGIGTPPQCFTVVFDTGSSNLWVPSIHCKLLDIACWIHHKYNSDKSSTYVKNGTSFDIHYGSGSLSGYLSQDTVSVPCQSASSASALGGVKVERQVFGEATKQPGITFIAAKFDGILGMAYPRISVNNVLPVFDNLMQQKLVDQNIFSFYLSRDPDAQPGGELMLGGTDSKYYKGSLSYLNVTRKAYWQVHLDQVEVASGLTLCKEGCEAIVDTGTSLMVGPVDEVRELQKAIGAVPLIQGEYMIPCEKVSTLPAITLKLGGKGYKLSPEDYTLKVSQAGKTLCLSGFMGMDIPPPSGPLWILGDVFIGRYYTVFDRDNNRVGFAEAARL
Excerpt: as §1, §2

Cathepsin S = Cathepsin S (Homo sapiens, UniProt P25774); test: selectivity panel inactivation kinetics, Cathepsin S; type: biochemical; conditions: kinact (Cathepsin L)/kinact (Cathepsin S); fold
Chain of Cathepsin S (P25774 115-331, species assumed): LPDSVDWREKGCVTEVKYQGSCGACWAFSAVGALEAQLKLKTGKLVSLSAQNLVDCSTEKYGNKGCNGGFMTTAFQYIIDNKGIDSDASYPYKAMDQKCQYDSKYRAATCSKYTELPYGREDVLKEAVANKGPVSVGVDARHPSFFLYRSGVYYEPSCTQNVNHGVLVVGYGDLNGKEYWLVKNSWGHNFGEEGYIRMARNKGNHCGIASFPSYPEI
Excerpt: as §1, §2

| Compound | percent inhibition [1] | RSF (Relative Selectivity Factor) (Cathepsin K) | time to near complete loss of cathepsin L activity ([2]; 15 nM compound 100) | IC50 ([2]; human cathepsin L) | RSF (Relative Selectivity Factor) ([2]; kinact (Cathepsin L)/kinact (Cathepsin L)) | mode of inhibition ([2]; no significant recovery of activity after very large dilution) | cell migratory potential (wound closure) [3] | reactivity (Cathepsin G) | reactivity (Trypsin) | RSF (Relative Selectivity Factor) (Cathepsin B) | reactivity (hPTP1B) | cell permeability [4] | intracellular substrate turnover (green fluorescence) ([4]; 750 nM, overnight (22 h), compared to control) | reactivity (Cathepsin D) | RSF (Relative Selectivity Factor) (Cathepsin S) |
| --- | --- | --- | --- | --- | --- | --- | --- | --- | --- | --- | --- | --- | --- | --- | --- |
| C=CS(=O)(=O)Oc1ccc(Br)cc1 [Precursor 301] | 95±3% |  |  |  |  |  |  |  |  |  |  |  |  |  |  |
| CC(C)C[C@@H](/C=C/S(=O)(=O)Oc1ccc(Br)cc1)NC(=O)[C@H](Cc1ccccc1)NC(=O)OCc1ccccc1 [compound 100] |  | 100 | less than 100 s | 3.6 ± 0.1 nM | 1 | irreversible | reducing cell migratory potential | no reactivity | no reactivity | 44,000 | no reactivity | cell permeable | near complete loss of intracellular substrate turnover; also recorded: significant loss of green fluorescent signal intensity | no reactivity | 13 |
